The values that follow come from publication PMC5555576, “Selective small-chemical inhibitors of protein arginine methyltransferase 5 with anti-lung cancer activity” (PLoS ONE, 2017).

The nature of data set [1]: Toxicity observed after intraperitoneal injection. It counts as in vivo, BALB/c mice. To be noted: 100 mg/kg. As to the method: The obtained 3 compounds (C5, C9, and C11) have characteristics of Lipinski’s rule-of-five, which defines four physicochemical parameters found in a set of active drugs which made them into phase II clinical trials. We chose one compound (C9) to analyze its pharmacokinetic parameters in the mouse. BALB/c mice were randomized and administrated compound C9 (dissolved in 5% DMSO and 0.5% Tween 80) at dosages of 25, 50 and 100 mg/kg by intraperitoneal (I.P.) injection. Mice were sacrificed and blood samples were collected at different time points after administration of compounds. The compound concentrations in plasma samples were measured (S1 Fig). […] However, we observed the high toxicity of the compound in the mouse at the dosage of 100 mg/kg.

The next data set deals with PRMT5 F225M. Put plainly: Radioactive methyltransferase assay, mutant PRMT5. It counts as biochemical, human. To be noted: Phe225 to Met. As to the method:
Methylation reactions were performed as previously described with a few modifications. Reaction mixtures (40 μl) containing 1.2 μg of PRMT5, 98 ng of PRMT1 or 98 ng of PRMT3; 2 μg of SmD3 or histones; 1 μCi of S-[methyl-^3H]adenosylmethionine (H^3-AdoMet; PerkinElmer); and 5 μM AdoMet were incubated in 50 mM Tris-HCl (pH 7.5)–1 mM EGTA–1 mM EDTA at 30°C for 2 h. Reaction mixtures (20 μl) were boiled in 5 μl of 5x SDS sample buffer and separated on a 15% polyacrylamide gel. Gels were fixed for 30 min in 40% methanol–10% acetic acid, incubated in 20 ml of Amplify (Amersham Life Science) for 10 min, dried and exposed to X-ray film at -80°C. IC50 was calculated by linear regression analysis of percent inhibition. The other half (20 μl) of each reaction mixture was spread onto DE81 chromatography paper discs (Whatman). The paper discs were washed 4 times with 50 mM NaHCO3 and dried. The amounts of methylated products were quantified by liquid scintillation.
The inhibitory activity of the compounds may stem from this interaction. To test this possibility, we conducted site-directed mutagenesis to mutate Phe225 in human PRMT5 (corresponding to Phe379 in the C. elegans PRMT5) to Met. The mutated PRMT5 was expressed in bacteria and purified by Ni-nitrilotriacetic acid (Ni-NTA) affinity chromatography (Fig 4A). The activity of the mutant PRMT5 was examined by the radioactive methyltransferase assay. […] The IC50 values for the mutant PRMT5 increased from 4.3 to 183 folds higher than those for the wild type PRMT5 (Fig 4D). […] The results also can help explain the specificity of the compounds to PRMT5. However, the contribution of this interaction to inhibition varies among the compounds. For example, compound C2 interacts with three amino acid residues (Lys451, Glu450, and Phe379) (Fig 3A) with the mutation of Phe to Met resulting in a 50-times higher IC50 (Fig 4C and 4D).
Fig 4 The conserved phenylalanine residue in PRMT5 is critical for inhibition by the five compounds. A, DS-PAGE of recombinant wild type (WT) and F225M mutant (MT) PRMT5. The gel was stained with Coomassie Brilliant Blue R250. A band corresponding to an unknown bacterial protein is indicated (star). B, The F225M mutation increased the methytransferase activity of PRMT5. In vitro methylation reactions were performed with recombinant wild type (lanes 2–4) or mutant (lanes 5–7) PRMT5 (1.2, 2.4 or 4.8 μg) and SmD3 (2 μg) as the substrate. C, The F225M mutation in PRMT5 decreased inhibition of arginine methylation by the compounds. The reaction mixture contained SmD3 (2 μg); wild type or mutant PRMT5 (1.2 μg); and 1, 10 or 100 μM compounds as indicated. D, The F225M mutation in PRMT5 […] of the compounds, as determined by quantitation and analysis of methylation assay results. TEXT PRINTED IN THE PICTURE: (D) C2: IC50 (μM) PRMT5: 0.1; IC50 (μM) PRMT5 F225M: 5.0 | (D) C5: IC50 (μM) PRMT5: 0.8; IC50 (μM) PRMT5 F225M: 3.5 | (D) C6: IC50 (μM) PRMT5: 0.5; IC50 (μM) PRMT5 F225M: 7.0 | (D) C9: IC50 (μM) PRMT5: 6.0; IC50 (μM) PRMT5 F225M: 45.0 | (D) C11: IC50 (μM) PRMT5: 0.3; IC50 (μM) PRMT5 F225M: 55.0

Data set [2] relates to A549 lung tumor xenografts. The experiment in a line: Orthotopic lung tumor xenograft model. It counts as in vivo, nude mice. The note with it: 100 mg/kg oral gavage daily. The method, then: Six-week old nude mice were purchased from the National Cancer Institute and maintained in a barred animal facility. Cell injection into the mouse lung was performed as described previously. Mice were treated with vehicle [0.1 ml, 0.5% (w/v) carboxymethycellulose plus 0.5% Tween 80] by oral gavage or the compound dissolved in the vehicle (0.1 ml, 100 mg/kg) for 21 days. The lungs of the mice were then removed, fixed with formaldehyde and embedded in paraffin. Paraffin-embedded lung tissue sections (4 μm) were stained with H&E and evaluated for tumors. The tumor areas in lungs were quantified using the ImageJ software program (NIH).
We used the orthotopic lung tumor model to determine effects of the compound C9a on growth of lung cancer xenografts. A549 cells were injected into the lung of nude mouse as previously reported by us. Mice were randomized and divided into two groups: (a) control mice (n = 5): administration of the vehicle [0.5% (w/v) carboxymethycellulose plus 0.5% Tween 80] by oral gavage daily; (b) treated mice (n = 10): administration of the compound C9a in the vehicle at the dosage of 100 mg/kg by oral gavage daily. […]
Fig 9 The compound C9a inhibited growth of lung tumor xenografts in nude mice. […] Histones were isolated from tumors and analyzed by SDS-PAGE stained with Commassie blue R250 (bottom) or by Western blot with anti-symmetric dimethyl arginine antibody (SYM10) (top).

`COc1ccc(Nc2ncnc3c2cnn3Cc2ccc(C)cc2)cc1` [Compound C9]: in data set [1], the “toxicity in the mouse” value is on record as “high toxicity”.

For `CCn1c(=O)[nH]c2cc(C(=O)Nc3ccc(OC)cc3)ccc2c1=O` [Compound C5], the “increase of IC50 for mutant PRMT5 over wild type PRMT5” value in the data set with PRMT5 F225M worked out at 4.3 fold.

Turning to `Nc1cccc(Nc2ncnc3c2cnn3Cc2ccccc2)c1` [Compound C9a], the “average tumor size (tumor area mean) in control mice relative to treated mice” value in data set [2] (3 weeks) is 7.2 fold. For the same molecule, the “effect on growth of mice (body weight)” value in data set [2] (21 days) is given as “retarded growth of mice”.
